What is called IC50 is the concentration needed to halve the response being measured.

Here are results for one compound from ChEMBL document CHEMBL1158276, “Synthesis of 5-(3-Hydroxypropyl)-7-methoxy-2-(3-methoxy-4-hydroxyphenyl)-3- benzo[ b ]furancarbaldehyde, a Novel Adenosine A 1 Receptor Ligand from the Root of Salvia miltiorrhiza” (J Nat Prod, 1996).

This assay concerns the target T1, Adenosine receptor A1 (Bos taurus, UniProt P28190).
T1 sequence (P28190 whole entry): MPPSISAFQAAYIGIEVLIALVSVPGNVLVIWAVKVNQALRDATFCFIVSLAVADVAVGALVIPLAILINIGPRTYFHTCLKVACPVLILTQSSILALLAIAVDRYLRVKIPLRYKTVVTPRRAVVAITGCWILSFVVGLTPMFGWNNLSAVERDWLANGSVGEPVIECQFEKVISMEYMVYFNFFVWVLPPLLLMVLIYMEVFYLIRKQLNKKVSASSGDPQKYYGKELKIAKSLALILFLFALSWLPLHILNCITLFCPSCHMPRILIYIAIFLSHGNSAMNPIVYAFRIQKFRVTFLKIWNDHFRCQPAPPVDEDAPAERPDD
Nature of the assay: Displacement of [3H]phenylisopropyladenosine from adenosine A1 receptor in bovine cerebral cortex membrane. It is filed as cell membranes. Background: Loss of bound radioactivity is the signal in a displacement assay; it reports binding, not function.

Take `COc1cc(-c2oc3c(OC)cc(CCCO)cc3c2C=O)ccc1O`: the half-inhibitory concentration (IC50) is 0.017 µM.
